The values that follow come from patent publication US20250051278A1, “[…]” (Reunion Neuroscience, Inc., priority 2021, published 2025).

A short description of series [1]: Subjective effects in human volunteers (standardized questionnaires). It is filed as in vivo. How it is done: The compound from example 6 (N,N diisopropyltryptamine-4-glutarate) is administered to human volunteers by subcutaneous injection of a sterile solution (1 mg/ml) at a dosage of 0.1-0.6 mg/kg. Blood samples are taken at 5, 15, 30, 45, 60, 120, 240 and 480 min and 24 h. Samples are analyzed by LCMS for drug and prodrug. Subjective effects are measured using standardized questionnaires.
The compound from example 2 (4-hemisuccinate of 4-OH-DiPT) is administered to human volunteers by oral ingestion of a tablet containing 50 mg of the prodrug. Blood samples are taken at 5, 15, 30, 45, 60, 120, 240 and 480 min and 24 h. Samples are analyzed by LCMS for drug and prodrug. Subjective effects are measured using standardized questionnaires.

The nature of series [2]: Head Twitch Response (HTR) or Wet Dog Shakes (WDS) by visual observation. To be noted: rats; highest intensity of head twitch at the Tmax of the PK profile. The series is classed as in vivo. How it is done:
In some cases, Head Twitch Response (HTR) or Wet Dog Shakes (WDS) were recorded by visual observation and counting of the relevant muscle twitches.

A short description of series [3]: Prodrug hydrolysis in rat plasma at 37° C. It is filed as in vitro ADME. To be noted: 1.0 ug/mL. How it is done:
(§1) Pooled mixed gender human plasma (2 ml), mouse plasma, rat plasma and dog plasma were equilibrated at 37° C. The compound of example 9 was added so as to achieve a concentration of 1.0 ug/mL. Aliquots (50 uL) of the mixture were withdrawn at timed intervals (0, 0.004, 0.5, 1, 2 and 4 hours) and quenched with 200 μL of methanol/acetonitrile (1:1). The samples were vortexed and stored at −80° C. until analysis. Assays were done in triplicate. Control samples were done in phosphate buffered saline (PBS, pH 7.4) and simulated gastric fluid (SGF, pH 2). Analysis of samples as performed by HPLC-MS to determine the amounts of prodrug and drug in each sample tested. Table 1 provides the mean concentrations of prodrug remaining at different time points of the experiment.

Another series is described as follows: Solubility in water. The series is classed as physicochemical. To be noted: thermodynamic from solid; HCl salt solid dissolved in water. How it is done: The structure was confirmed by NMR. Purity was determined by HPLC (>97%). The solid was resuspended in 1M HCl-dioxane to form the HCl salt which was filtered, washed with ether and dried. Yield (>95%, purity >95%; DSC endotherm 174C). The solid could be dissolved in water up to 50 mg/ml and lyophilized to form a white “cake”.

Series [4] is described as follows: Use in treatment of a human patient suffering depression. The series is classed as in vivo. To be noted: i.m. or s.c. injection ca. 25 mg or oral ca. 50-200 mg. On the procedure: The compound of example 6 (N,N diisopropyltryptamine-4-glutarate) is administered by i.m. or s.c. injection (ca. 25 mg; 0.4-0.5 mg/kg) to a human patient suffering depression, or by oral administration (ca. 50-200 mg; 0.8-3.2 mg/kg) with tablets. In another example of use, the compound of example 6 (4-hemiglutarate of 4-OH-DiPT) is similarly administered. Prior to the dosing session, the patient is qualified for the experience by measurement of depression scores, screened for exclusions (e.g. history of psychoses, unfavorable heart condition, pregnancy) and finally, the patient is encouraged to formulate an intent for the dosing session. Dosing is performed in a quiet clinic setting with the patient resting comfortably in an inclined, but unrestrained, position to avoid falls. The patients' eyes are covered, and music is applied. The drug is administered. After 4 h, the patient reports no longer feeling the effects of the drug and is asked to sit up while under supervision. Feeling normal, the patient is allowed to stand (supervised) and feeling in control, is allowed to move around. One hour later, the patient is discharged. Later by 24 h, the patient returns to the clinic to meet with a psychotherapist to recount the session. The patient records a depression score via questionnaire and is again discharged. […]

Series [5] is described as follows: Control hydrolysis in simulated gastric fluid (SGF, pH 2). The series is classed as physicochemical. As to conditions: SGF (pH2). On the procedure:
as §1

Series [6] can be described thus: Prodrug hydrolysis in mouse plasma at 37° C. It is filed as in vitro ADME. To be noted: 1.0 ug/mL. On the procedure:
as §1

A short description of series [7]: Control hydrolysis in phosphate buffered saline (PBS, pH 7.4). As to conditions: PBS (pH7). The series is classed as physicochemical. How it is done: as §1
Series [8] is described as follows: Prodrug hydrolysis in dog plasma at 37° C. It is filed as in vitro ADME. To be noted: 1.0 ug/mL. How it is done: as §1
A short description of series [9]: Prodrug hydrolysis in pooled mixed gender human plasma at 37° C. The series is classed as in vitro ADME. As to conditions: 1.0 ug/mL. How it is done: as §1
A short description of series [10]: Pharmacokinetics in rats (intravenous and subcutaneous injection). It is filed as in vivo. As to conditions: i.v. and s.c., 1.4-2 mg/kg, LCMS, rapidly converted to the active form. On the procedure: The compound from example 9 was administered to rats by injection (intravenous and subcutaneous) with a sterile solution (2 mg/ml) at a rate of 1.4-2 mg/kg. Blood samples were taken at 15, 30, 45, 60, 120, 240 min and 360 min and analyzed by LCMS for drug and prodrug. PK profile for the prodrug and active species were obtained and relative bioavailability was determined for each of the routes of administration.
Pharmacokinetics of 1.34 mg/ml 4-HO-DiPT HCl administered by intravenous or subcutaneous injection were performed in parallel under identical conditions as above. […] Immediately obvious is the increased variability with the active species when administered s.c. and intravenous administrations.

For `CC(C)N(CCc1c[nH]c2cccc(OC(=O)CCC(=O)O)c12)C(C)C` [Example 2, N,N diisopropyltryptamine-4-succinate], the “Subjective effects: intensity of psychoactivity” value in series [1] (oral tablet 50 mg) is on record as “correlates with blood levels”.
Turning to `CC(C)N(CCc1c[nH]c2cccc(O)c12)C(C)C` [Example 4-HO-DIPT, 4-hydroxy-N,N-diisopropyltryptamine], in [2], the “Intensity of the HTR versus plasma concentration of 4-HO-DIPT” value is listed as “proportional to the plasma concentration”.
Consider `CC(C)N(CCc1c[nH]c2cccc(OC(=O)CCCC(=O)O)c12)C(C)C` [Example 6, N,N diisopropyltryptamine-4-glutarate], for which the “Percentage of remaining prodrug” value in series [3] (0 h) amounted to 100%; in series [3] (0.004 h), 0%; in [3] (0.5 h), 0%; in [3] (1 h), 0%; in series [3] (2 h), 0%; in series [3] (4 h) it was 0%. Besides, the “Percentage of remaining prodrug” value in series [5] (0 h) is recorded as 100%; in series [5] (0.004 h), 100%; in series [5] (0.5 h), 100%; in series [5] (1 h), 100%; in [5] (4 h) it was 101%; in [6] (0 h) it was 100%. Also, the “Percentage of remaining prodrug” value in series [6] (0.004 h) was 0%; in series [6] (0.5 h), 0%; in series [6] (1 h), 0%; in series [6] (2 h), 0%; in series [6] (4 h) it was 0%; in [7] (0 h) it was 100%. Further, the “Percentage of remaining prodrug” value came out at 93% in series [7] (4 h); 100% in [8] (0 h); 100% in [8] (0.004 h); 87% in [8] (0.5 h); 79% in series [8] (1 h); 64% in series [8] (2 h). The “Percentage of remaining prodrug” value in series [8] (4 h) is 39%; in series [9] (0 h), 100%; in [9] (0.004 h), 100%; in series [9] (0.5 h), 3.0%; in [9] (1 h), 0.23%; in [9] (2 h), 0%. Besides, the “Percentage of remaining prodrug” value in [9] (4 h) was 0%. Also, the solubility in “Solubility in water” was no more than 50 mg/mL. Besides, the “Time after which the patient reports no longer feeling the effects of the drug” value in [4] came out at 4 h. Further, in series [1] (subcutaneous injection, 0.1-0.6 mg/kg), the “Subjective effects: intensity of psychoactivity” value is recorded as “correlates with blood levels”.
As to `CC(C)N(CCc1c[nH]c2cccc(OC(=O)CCCC(=O)O)c12)C(C)C.Cl` [Example 9, HCl salt of N,N diisopropyltryptamine-4-glutarate], the “Prodrug in blood samples after injection” value in series [10] was “not observed”.

A word on the solubility: it is the dissolved amount per volume that the medium holds.
